These are literature values, as cited in patent publication US12054764B2, “High-throughput screens for exploring biological functions of microscale biological systems” (THE BROAD INSTITUTE, INC., priority 2017, dated 2024).

Converted amounts (≈) assume the structure as drawn.

The series has as its system E. coli. The settings on record: stated in the legend of FIG. 10 as the loading concentration in 2% ultra-low melt agarose droplets.

`CC1(C)S[C@@H]2[C@H](NC(=O)[C@H](N)c3ccccc3)C(=O)N2[C@H]1C(=O)O` [Ampicillin]: the “minimum inhibitory concentration (MIC)” value was 5 µg/mL (≈ 14.3 µM).
